pIC50: −log10 of the molar value. Where “and” joins values, the source holds several entries; their conditions need not be identical. Identical values can stand only once.
System: 454973-116-R2-J3-PDC complex spheroid viability
Test: Anticancer human tumor 454973-116-R2-J3-PDC patient-derived pancreatic carcinoma cell line growth inhibition [POLQ]
Settings: for viability, T/C: stronger effect = lower value
Description: Multicellular complex tumor spheroid response to Polymerase (POL) inhibitors (novobiocin, ART-558, RP6685) in combination with a variety of drugs and investigational agents in selected tumor cell lines
The POL inhibitors (novobiocin, ART-558, and RP6685) were evaluated both individually and in combination with standard of care and investigational anticancer small molecules within a complex spheroid model of solid tumors. . Complex spheroids include a stromal component modeled by human endothelial cells (HUVEC) and fibroblasts modeled by human mesenchymal stem cells (MSCs). The concentration ranges selected for each drug and investigational agent were based upon clinically achievable concentrations if the clinical Cmax of the agent was known.
Compounds. The drugs and investigational agents: novobiocin (NSC847541), ART-558 (NSC835418), RP-6685 (NSC848927), peposertib (NSC802822), ceralasertib (NSC780249), elimusertib (NSC800525), camonsertib (NSC841442), AZD-1390 (NSC803789), olaparib (NSC753686), talazoparib (NSC767125), rucaparib (NSC756644), sotorasib (NSC818433), MRTX-1133 (NSC836407), SN-38 (NSC673596), topotecan (NSC609699), epotoside (NSC141540), doxorubicin (NSC123127), gemcitabine (NSC613327), 5-fluorouracil (NSC19893), paclitaxel (NSC125973), vemurafenib (NSC761431), MSA-2 (NSC828583), SN-011 (NSC837082), adavosertib (NSC754352), prexasertib (NSC758257), carboplatin (NSC241240) and oxaliplatin (NSC266046), were obtained from the National Cancer Institute (NCI) Developmental Therapeutics Program Chemical Repository (21). The FDA-approved anticancer drug set is available from the Developmental Therapeutics Program at https://dtp.cancer.gov/organization/dscb/obtaining/. […] The stock solutions were prepared in dimethyl sulfoxide (DMSO, Sigma-Aldrich, St. Louis, MO, cat. D2650), except for the platinum compounds which were prepared in saline (Quality Biological, Gaithersburg, MD, cat. 114-055-101), at 800-fold the tested concentration and stored at -70 degrees C prior to their use. All drugs and investigational agents were tested over a range starting from a high concentration at or near the clinical Cmax and decreasing in half-log increments. If the clinical Cmax for an agent had not been determined, the highest concentration tested was 10 microM, except for SN-38, which was tested at a high concentration of 1 microM.
Cell Culture. All cells were maintained in an incubator at 37 degrees C and 5% CO2 with 95% humidity. The PDC lines were cultured according to standard operating procedures established by the NCI PDMR (https://pdmr.cancer.gov). Table 3 of the manuscript, lists the cell lines along with the number of the three cell types plated to form the mct-spheroids and media for tumor cell growth. After thawing, all PDC lines, except 997537-175-T-J1-PDC and 415267-285-R-J2-PDC, were cultured in Matrigel-coated flasks prepared with a working solution of 1X Ham's F-12 nutrient mix, without supplementation (Thermo Fisher Scientific, cat. 11765054), 100 U/mL penicillin-streptomycin (Thermo Fisher Scientific, cat. 15140122), and 2.5% Matrigel (Corning Inc., Corning, NY, cat. 354248) for the first three passages. The two PDC lines 997537-175-T-J1-PDC and 415267-285-R-J2-PDC were cultured on uncoated flasks. The 857933-349-R-J2-PDC line was cultured in 6C/Colon 1B media containing advanced DMEM/F-12 (Thermo Fisher Scientific, cat. 12634028), 10 mM HEPES (Thermo Fisher Scientific, cat. 15630080), 1X GlutaMAX supplement (Thermo Fisher Scientific, cat. 35050061), 0.1 mg/mL primocin (InvivoGen, San Diego, CA, cat. ant-pm-2), 10% defined fetal bovine serum, heat inactivated (HyClone Laboratories Inc., Logan, UT, cat. SH30070.03HI), 50% L-WRN conditioned media (ATCC, cat. CRL-3276), 1.25 mM N-Acetyl-L-cysteine (Sigma-Aldrich, cat. A9165), 10 mM nicotinamide (Sigma-Aldrich, cat. N0636), 1X B-27 supplement (Thermo Fisher Scientific, cat. 17504044), 1X N-2 supplement (Thermo Fisher Scientific, cat. […]
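Note: spheroids exposed to drugs for seven days before measurement.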
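Throughout, for viability, T/C: percent viability relative to DMSO vehicle control wells taken as 100%.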

## CC1COCCN1c1cc(-c2ccnn2C)c2ccnc(-c3ccn[nH]3)c2n1 (centres undefined) + Nc1ccc(C#CCN(C(=O)Cc2ncc(C(F)(F)F)cc2C(F)(F)F)c2ccc(F)cc2)nn1
Curve of first compound, second compound 0.0316 µM
  pIC50: 6.90
Curve of first compound, second compound 0.1 µM
  pIC50: 6.93
Curve of first compound, second compound 0.316 µM
  pIC50: 6.92
Curve of first compound, second compound 1 µM
  pIC50: 6.96
Curve of first compound, second compound 3.16 µM
  pIC50: 6.92
Curve of first compound, second compound 10 µM
  pIC50: 7.05
Second compound 0.0316 µM, first compound 0.0316 µM
  viability, T/C: 83.6%
Second compound 0.0316 µM, first compound 0.1 µM
  viability, T/C: 57.6%
Second compound 0.0316 µM, first compound 0.316 µM
  viability, T/C: 19.8%
Second compound 0.0316 µM, first compound 1 µM
  viability, T/C: 11.3%
Second compound 0.0316 µM, first compound 3.16 µM
  viability, T/C: 14%
Second compound 0.0316 µM, first compound 10 µM
  viability, T/C: 14.1%
Second compound 0.1 µM, first compound 0.0316 µM
  viability, T/C: 80.3%
Second compound 0.1 µM, first compound 0.1 µM
  viability, T/C: 54.6%
Second compound 0.1 µM, first compound 0.316 µM
  viability, T/C: 20.1%
Second compound 0.1 µM, first compound 1 µM
  viability, T/C: 13.5%
Second compound 0.1 µM, first compound 3.16 µM
  viability, T/C: 11.2%
Second compound 0.1 µM, first compound 10 µM
  viability, T/C: 14.6%
Second compound 0.316 µM, first compound 0.0316 µM
  viability, T/C: 91%
Second compound 0.316 µM, first compound 0.1 µM
  viability, T/C: 55.6%
Second compound 0.316 µM, first compound 0.316 µM
  viability, T/C: 19.1%
Second compound 0.316 µM, first compound 1 µM
  viability, T/C: 9.76%
Second compound 0.316 µM, first compound 3.16 µM
  viability, T/C: 12.6%
Second compound 0.316 µM, first compound 10 µM
  viability, T/C: 14.6%
Second compound 1 µM, first compound 0.0316 µM
  viability, T/C: 90.2%
Second compound 1 µM, first compound 0.1 µM
  viability, T/C: 52.7%
Second compound 1 µM, first compound 0.316 µM
  viability, T/C: 16.8%
Second compound 1 µM, first compound 1 µM
  viability, T/C: 11.3%
Second compound 1 µM, first compound 3.16 µM
  viability, T/C: 13.6%
Second compound 1 µM, first compound 10 µM
  viability, T/C: 14.5%
Second compound 3.16 µM, first compound 0.0316 µM
  viability, T/C: 88.7%
Second compound 3.16 µM, first compound 0.1 µM
  viability, T/C: 55.6%
Second compound 3.16 µM, first compound 0.316 µM
  viability, T/C: 18.2%
Second compound 3.16 µM, first compound 1 µM
  viability, T/C: 11.3%
Second compound 3.16 µM, first compound 3.16 µM
  viability, T/C: 9.64%
Second compound 3.16 µM, first compound 10 µM
  viability, T/C: 11.8%
Second compound 10 µM, first compound 0.0316 µM
  viability, T/C: 92.5%
Second compound 10 µM, first compound 0.1 µM
  viability, T/C: 45.7%
Second compound 10 µM, first compound 0.316 µM
  viability, T/C: 17.5%
Second compound 10 µM, first compound 1 µM
  viability, T/C: 10.5%
Second compound 10 µM, first compound 3.16 µM
  viability, T/C: 10.2%
Second compound 10 µM, first compound 10 µM
  viability, T/C: 13.4%

## CCc1cc2c(N3CCc4c(cc(Cn5ccnc5)cc4-c4cn(C)nc4C(F)(F)F)C3=O)ccnc2c(OC)n1
Compound 0.0316 µM
  viability, T/C: 109% and 100% and 101%
Compound 0.1 µM
  viability, T/C: 95.6% and 93% and 84.3%
Compound 0.316 µM
  viability, T/C: 98.7% and 82.7% and 86.3%
Compound 1 µM
  viability, T/C: 87.5% and 83.7% and 77.2%
Compound 3.16 µM
  viability, T/C: 89.3% and 71.8% and 72.8%
Compound 10 µM
  viability, T/C: 68% and 70.2% and 53.9%
Curve of compound
  pIC50: < 5.00

— PubChem BioAssay AID1963846 (Molecular Pharmacology Branch, DTP, NCI, 2024)
